The test system of one test is cynomolgus monkeys. Description: Cholesterol levels after repeated oral administration in monkey toxicity studies. It counts as in vivo, cynomolgus monkey. To be noted: 28-Day study, daily oral dosing 1, 10 and 30 mg/kg, day 28. As to the method:
During these studies monkeys were fasted prior to each blood collection. Plasma samples were then evaluated at pre-dose and at different time-points for levels of total cholesterol.

Test [1] deals with ApoE deficient mice. Kind of test: High cholesterol mouse model, ApoE deficient mice, 2 weeks. It is filed as in vivo. The conditions noted are these: Compound 60 mg/kg three times a week for two weeks, n=10/group, FIG. 22. The text has this:
(§1) Ten-week-old male apoE knockout mice (Jackson Laboratories, Bar Harbor, Me.) were fed a normal chow diet (0.02% cholesterol, 13.5% fat by weight; LabDiet). […] After 2 weeks of acclimatization, whole blood was collected for baseline measurement before administration of test reagents. […] The animals were sacrificed at end of study.
ApoE deficient mice as described in Example 10 were used to test the effect of various compounds on cholesterol levels. […] A statin compound (rosuvastatin) was also tested. Blood samples were collected at the end of the study and total cholesterol blood levels were tested. A group of 10 mice was sacrificed at the beginning of the study for a baseline total cholesterol measurement. […] Typically statins show mixed results in this model and are not very effective to reduce cholesterol in mice (Bea et al. 2003 Atherosclerosis 167:187-194).

The subject of test [2] is ApoE deficient mice. Description: Cholesterol reduction and erythrogenesis in ApoE deficient mice, 4 weeks. It is filed as in vivo, mouse. To be noted: orally 2, 20, 60 or 100 mg/kg three times a week for 4 weeks, n=8/group. As to the method:
as §1
Total cholesterol and hemoglobin were measured weekly.

The subject of test [3] is genes involved in cholesterol biosynthesis in DIO mice liver. Description: Microarray expression of cholesterol biosynthesis genes in liver of DIO mice. It is filed as in vivo, mouse. The conditions noted are these: 60 mg/kg three times a week, 4 weeks of dosing, relative to vehicle treated mice. As to the method: A number of PHI compounds were evaluated for their effect on the expression of cholesterol biosynthesis genes in mouse liver. […] Liver tissue was harvested and stored in RNALater (Life Technologies). Total RNA was isolated with Trizol (Life Technologies) and purified with RNEasy96 (Qiagen) according to the manufacturers' protocols. RNA concentration was measured by NanoDrop (Thermo), and quality was assessed by Bioanalyzer (Agilent).
Biotinylated microarray probe was prepared using the 3′IVT Express kit (Affymetrix) and hybridized to mouse 430A 2.0 arrays as recommended in the manufacturer's protocol. Arrays were stained, washed, and scanned using Affymetrix equipment and software. Three arrays were run for each treatment and time point, each representing the liver sample from one individual animal.
For microarray analysis, RNA from animals in each treatment group was pooled in pairs (n=3 pairs for 4 h vehicle, n=2 pairs for all other treatment groups, for a total of 13 arrays per compound study). This approach was used to improve the signal-to-noise ratio on microarrays. Biotinylated probe was prepared using the One-Cycle cDNA synthesis kit (Affymetrix) and hybridized to mouse 430A 2.0 arrays as recommended in the manufacturer's protocol. Arrays were stained, washed, and scanned using Affymetrix equipment and software.
Array quality was assessed with GeneChip Operating System and/or Command Console software (Affymetrix). CEL files were uploaded to GeneSpring 7.3.1 (Agilent) using GC-RMA baseline correction. Principal Components Analysis was used to identify and reject outlier arrays. Data are reported as fold-change compared to timepoint-matched vehicle controls from the same study. Values less than 1.0 indicate a reduction of RNA in the treated animal liver tissue.
Liver tissue was collected as described in Example 6 from DIO mice at the end of the study (4 weeks of dosing) described in Example 12. RNA isolation and microarray analysis were carried out as described in Example 6. The expression of 16 genes involved in cholesterol biosynthesis in mice treated with Compound B, Compound E, or Compound D, relative to that in the vehicle treated mice, is shown in Table 7.

SMILES strings stand for the structures. “Also recorded” adds a separate entry of the source.

For `COc1ccc(Oc2ccc3c(O)c(C(=O)NCC(=O)O)ncc3c2)cc1` [Compound D, {[4-Hydroxy-7-(4-methoxy-phenoxy)-isoquinoline-3-carbonyl]-amino}-acetic acid], the total cholesterol levels entry in the test with cynomolgus monkeys is reported as “dose-dependent decrease in cholesterol levels”. Also, the total cholesterol levels entry with cynomolgus monkeys (listed as compound D) is given as “dose dependent decrease in total cholesterol”. For the same molecule, the “total cholesterol levels at the end of the study compared to baseline” value in the test with ApoE deficient mice [1] is “significantly decreased cholesterol levels”. For the same molecule, in the test with ApoE deficient mice [2], the “hemoglobin compared to vehicle-treated” value is on record as “did not significantly increase hemoglobin at any of the tested doses; also recorded: did not show a significant increase in hemoglobin at any of the doses tested”; the “total cholesterol (% change from baseline) compared to vehicle-treated” value is “lower total cholesterol levels; also recorded: significant percent change in total cholesterol from baseline for the 20 mg/kg, 60 mg/kg, and 100 mg/kg doses”. In test [3], the “3-hydroxy-3-methylglutaryl-Coenzyme A reductase (Hmgcr) expression” value is recorded as 0.47, the “3-hydroxy-3-methylglutaryl-Coenzyme A synthase 1 (Hmgcs1) expression” value is on record as 0.42, the “7-dehydrocholesterol reductase (Dhcr7) expression” value is on record as 0.76 and the “NAD(P) dependent steroid dehydrogenase-like (Nsdhl) expression” value was 1.02. Besides, in test [3], the “acetyl-Coenzyme A acetyltransferase 2 (Acat2) expression” value was determined as 0.72; the “cytochrome P450, family 51 (Cyp51) expression” value was 0.55; the “farnesyl diphosphate farnesyl transferase 1 (Fdft1) expression” value amounted to 0.44; the “farnesyl diphosphate synthetase (Fdps) expression” value is on record as 0.92. Besides, in test [3], the “isopentenyl-diphosphate delta isomerase (Idi1) expression” value came out at 0.67, the “lanosterol synthase (Lss) expression” value was found to be 0.70, the “mevalonate (diphospho) decarboxylase (Mvd) expression” value was determined as 0.43 and the “mevalonate kinase (Mvk) expression” value is given as 0.77. For the same molecule, in test [3], the “phosphomevalonate kinase (Pmvk) expression” value is listed as 1.14; the “squalene epoxidase (Sqle) expression” value is reported as 0.89; the “sterol-C4-methyl oxidase-like (Sc4mol) expression” value was 0.38; the “sterol-C5-desaturase (fungal ERG3, delta-5-desaturase) homolog (S. cerevisae) (Sc5d) expression” value is reported as 0.42.

These data come from patent US20150018384A1, “TREATMENT FOR HIGH CHOLESTEROL” (FibroGen, Inc., priority 2012, published 2015).
